Tests used:
Fabry-Rag mice = assay: Combination ERT/SRT therapy of Fabry-Rag mice; assay type: in vivo, mouse; conditions: ERT 1 mg/kg α-galactosidase A i.v., SRT 300 mg/kg daily in diet
Procedure: For the combination therapy studies, Fabry-Rag mice were put on study at 3 months old (treatment model). Mice in group A received intravenous injections of recombinant human alpha-galactosidase A (Genzyme Corp.) at a dose of 1 mg/kg every 2 months (i.e. 3, 5, 7 and 9 months old). Group B received the same intravenous enzyme doses plus it received Formula (I) Hemitartrate (Genzyme Corp., Cambridge, Mass.) as a component of the pellet food diet. The drug was formulated at 0.15% (w/w) in standard 5053 mouse chow (TestDiet, Richmond, Ind.) and provided ad libitum. […] Group C received enzyme injections every 4 months (i.e. 3 and 7 months old) and was on the same drug-in-food diet as group B. Group D received only the drug-in-food diet (same as groups B and C). Group E was untreated Fabry-Rag mice and group F were wild-type controls.
Quantitation of GL-3 was by Tandem Mass Spectrometry essentially as for GL-1.
Hot plate Assay was performed as described previously (Ziegler, R J et al. Molec. Ther. 15(3), 492-500 (2007).
Beginning at three-months of age, the mice were subjected to a schedule of behavioral tests (i.e. hot-plate assay) and biochemical tests (i.e., GL-3 level analysis in tissues/blood/urine), as shown in FIG. 10.

maltase = assay: Intestinal glycosidase assay in rat tissue homogenates; assay type: biochemical
Procedure: (§1) The specificity of Formula (I) Hemitartrate was evaluated in a series of in vitro cell-based and cell-free assays. The intestinal glycosidase enzymes were assayed in rat tissue homogenates (see U. Andersson, et al., Biochem. Pharm. 59 (2000) 821-829, the entire teachings of which are incorporated herein by reference), and the glycogen debranching enzyme was assayed in a cell free assay as described (see U. Andersson, et al., Biochem. Pharm. 67 (2004) 697-705, the entire teachings of which are incorporated herein by reference).

sucrase = molecular target: T1, sucrase (Rattus norvegicus, UniProt P23739); assay: as above; assay type: biochemical
T1 construct: The intestinal glycosidase enzymes were assayed in rat tissue homogenates; from tissue; host or cells: rat intestinal tissue homogenate
T1 sequence (P23739 whole entry): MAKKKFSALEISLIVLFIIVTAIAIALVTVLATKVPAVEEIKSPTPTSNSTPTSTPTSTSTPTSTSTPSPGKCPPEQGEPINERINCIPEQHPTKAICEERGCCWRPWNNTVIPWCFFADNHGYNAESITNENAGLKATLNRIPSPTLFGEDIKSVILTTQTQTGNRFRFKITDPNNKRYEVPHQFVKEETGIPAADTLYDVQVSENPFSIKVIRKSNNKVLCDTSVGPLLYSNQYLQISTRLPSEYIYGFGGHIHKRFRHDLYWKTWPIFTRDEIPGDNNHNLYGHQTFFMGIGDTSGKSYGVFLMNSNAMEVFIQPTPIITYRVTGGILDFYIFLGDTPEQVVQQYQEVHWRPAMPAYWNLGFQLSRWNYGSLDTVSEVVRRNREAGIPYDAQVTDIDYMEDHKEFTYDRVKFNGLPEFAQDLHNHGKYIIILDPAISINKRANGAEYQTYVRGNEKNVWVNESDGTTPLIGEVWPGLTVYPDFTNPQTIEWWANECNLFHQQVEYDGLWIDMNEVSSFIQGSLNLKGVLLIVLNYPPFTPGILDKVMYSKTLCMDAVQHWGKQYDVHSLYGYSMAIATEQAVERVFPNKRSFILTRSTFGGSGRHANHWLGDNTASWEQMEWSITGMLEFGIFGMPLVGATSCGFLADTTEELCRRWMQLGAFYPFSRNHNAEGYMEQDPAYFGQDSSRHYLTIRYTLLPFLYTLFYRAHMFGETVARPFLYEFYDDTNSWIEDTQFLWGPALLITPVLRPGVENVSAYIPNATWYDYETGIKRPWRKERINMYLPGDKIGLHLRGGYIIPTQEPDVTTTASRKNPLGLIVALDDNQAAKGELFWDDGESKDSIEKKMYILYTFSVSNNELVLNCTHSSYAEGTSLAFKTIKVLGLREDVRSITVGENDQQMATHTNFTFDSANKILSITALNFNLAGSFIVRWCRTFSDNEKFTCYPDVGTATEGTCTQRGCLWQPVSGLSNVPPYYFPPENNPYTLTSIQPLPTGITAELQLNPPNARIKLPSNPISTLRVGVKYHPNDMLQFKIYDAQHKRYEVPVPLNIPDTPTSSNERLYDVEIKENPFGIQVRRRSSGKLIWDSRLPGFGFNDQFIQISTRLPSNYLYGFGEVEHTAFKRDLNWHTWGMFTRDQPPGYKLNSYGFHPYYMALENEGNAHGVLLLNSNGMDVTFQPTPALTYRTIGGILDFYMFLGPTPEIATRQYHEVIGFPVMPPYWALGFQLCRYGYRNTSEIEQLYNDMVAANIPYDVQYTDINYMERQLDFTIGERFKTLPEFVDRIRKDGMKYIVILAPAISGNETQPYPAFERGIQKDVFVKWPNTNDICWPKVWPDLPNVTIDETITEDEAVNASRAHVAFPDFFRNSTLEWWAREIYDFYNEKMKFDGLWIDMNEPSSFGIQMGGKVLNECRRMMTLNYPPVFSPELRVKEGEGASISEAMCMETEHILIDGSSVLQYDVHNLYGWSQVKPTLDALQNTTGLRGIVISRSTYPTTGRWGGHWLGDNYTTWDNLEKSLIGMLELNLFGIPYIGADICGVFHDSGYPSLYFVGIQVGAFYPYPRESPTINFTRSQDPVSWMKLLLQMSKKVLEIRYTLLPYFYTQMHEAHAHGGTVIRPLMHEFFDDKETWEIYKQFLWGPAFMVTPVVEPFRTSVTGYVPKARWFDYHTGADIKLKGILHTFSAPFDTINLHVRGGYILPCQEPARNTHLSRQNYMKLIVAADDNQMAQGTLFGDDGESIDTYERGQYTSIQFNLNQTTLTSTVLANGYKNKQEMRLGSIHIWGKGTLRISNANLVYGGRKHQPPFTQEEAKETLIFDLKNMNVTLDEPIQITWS
Procedure: as §1

lactase = molecular target: T2, lactase (Rattus norvegicus, UniProt Q02401); assay: as above; assay type: biochemical; conditions: concentrations up to 2500 μM
T2 construct: The intestinal glycosidase enzymes were assayed in rat tissue homogenates; from tissue; host or cells: rat intestinal tissue homogenate
T2 sequence (Q02401 868-1928): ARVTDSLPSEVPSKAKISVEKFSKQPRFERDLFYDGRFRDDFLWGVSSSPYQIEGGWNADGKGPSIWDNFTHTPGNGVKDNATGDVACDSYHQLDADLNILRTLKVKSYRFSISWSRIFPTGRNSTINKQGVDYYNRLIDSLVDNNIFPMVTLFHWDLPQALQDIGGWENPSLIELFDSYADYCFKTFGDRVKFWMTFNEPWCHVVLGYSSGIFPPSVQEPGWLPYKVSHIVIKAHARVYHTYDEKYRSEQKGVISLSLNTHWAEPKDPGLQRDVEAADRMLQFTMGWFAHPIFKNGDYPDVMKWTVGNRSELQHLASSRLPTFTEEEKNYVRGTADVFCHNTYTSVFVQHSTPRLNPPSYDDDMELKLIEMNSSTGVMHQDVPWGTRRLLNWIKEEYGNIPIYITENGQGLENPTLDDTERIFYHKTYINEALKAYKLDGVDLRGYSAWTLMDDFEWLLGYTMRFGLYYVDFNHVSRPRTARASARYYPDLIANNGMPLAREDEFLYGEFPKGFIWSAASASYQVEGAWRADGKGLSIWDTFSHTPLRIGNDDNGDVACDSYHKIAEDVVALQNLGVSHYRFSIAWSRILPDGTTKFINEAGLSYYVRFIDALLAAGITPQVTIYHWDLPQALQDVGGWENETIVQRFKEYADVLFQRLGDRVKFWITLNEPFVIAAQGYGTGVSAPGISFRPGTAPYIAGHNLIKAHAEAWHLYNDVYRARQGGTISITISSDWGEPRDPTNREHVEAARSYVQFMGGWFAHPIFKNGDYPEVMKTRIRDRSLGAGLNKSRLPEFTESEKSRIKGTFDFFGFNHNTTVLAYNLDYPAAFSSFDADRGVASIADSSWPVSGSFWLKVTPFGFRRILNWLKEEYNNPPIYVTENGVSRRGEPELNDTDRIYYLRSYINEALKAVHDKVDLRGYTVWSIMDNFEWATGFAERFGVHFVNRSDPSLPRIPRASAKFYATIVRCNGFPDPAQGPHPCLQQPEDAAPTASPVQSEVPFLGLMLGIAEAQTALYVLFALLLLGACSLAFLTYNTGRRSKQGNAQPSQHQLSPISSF
Procedure: as §1

D409V/null mice = assay: Oral gavage efficacy study in Gaucher D409V/null mice; assay type: in vivo, mouse
[1] = both, human, in vivo
Source text: This was an open-label, fixed-sequence study in 36 healthy subjects (17 males and 19 females).

[2] = mouse, in vivo, po, 150 mg/kg/day

CCCCCCCC(=O)N[C@H](CN1CCCC1)[C@H](O)c1ccc2c(c1)OCCO2 [Formula (I) Hemitartrate]
onset of heat-insensitivity (Fabry-Rag mice): delays onset | urine GL-3 levels (Fabry-Rag mice): reduces | blood GL-3 levels (Fabry-Rag mice; from 3 months of age): does not | inhibition of maltase (maltase; concentrations up to 2500 μM): No detectable inhibition | Ki (maltase; read-out: Enzyme specificities, Ki: Maltase inhibition): > 10 µM | inhibition of sucrase (sucrase; concentrations up to 2500 μM): No detectable inhibition | Ki (sucrase; read-out: Enzyme specificities, Ki: Sucrase inhibition): > 10 µM | inhibition of lactase (lactase): No detectable inhibition | gastro-intestinal issues (D409V/null mice; effective dose of 150 mg/kg/day): no observable gastro-intestinal issues | glucosylceramide levels versus age-matched vehicle-treated controls (D409V/null mice; mouse, in vivo): dose-dependent reduction | body weight versus untreated mice (D409V/null mice; [2]): no significant deviation | effects on well-being or feeding habits (D409V/null mice; [2]): no notable effects | frequency of Gaucher cells in the liver versus untreated mice (D409V/null mice; [2]): significantly lower | glucosylceramide levels in liver, % lower than in vehicle-treated mice (D409V/null mice; [2]): 60% | glucosylceramide levels in liver, lung and spleen versus start of the study (D409V/null mice; [2]): had not increased | glucosylceramide levels in lung, % lower than in vehicle-treated mice (D409V/null mice; [2]): 50% | glucosylceramide levels in spleen, % lower than in vehicle-treated mice (D409V/null mice; [2]): 40% | glucosylceramide levels in the liver, % of those in the controls (D409V/null mice; [2]): 60% | glucosylceramide levels in the lung, % of those in the controls (D409V/null mice; [2]): 40% | glucosylceramide levels in the spleen, % of those in the controls (D409V/null mice; [2]): 75% | accumulation in AUC, repeated versus single dose administration [1]: 2 fold | accumulation in Cmax, repeated versus single dose administration [1]: 2 fold | increase in AUC with concomitant paroxetine versus multiple-dose alone [1]: 9 fold | increase in Cmax with concomitant paroxetine versus multiple-dose alone [1]: 7 fold

Reference: patent US10888547B2, “Amorphous and a crystalline form of genz 112638 hemitartrate as inhibitor of glucosylceramide synthase” (Genzyme Corporation, priority 2009, dated 2021)
